Among the data in US20230203043A1, “NOVEL IMIDAZOPYRAZINE DERIVATIVES” (Hoffmann-La Roche Inc., priority 2020, published 2023) are IC90 values, retold here.

Structures can show the parent of a compound that is named as a salt.

One assay relates to Acinetobacter baumannii ATCC17961. The experiment in a line: Antimicrobial susceptibility testing: 90% growth inhibitory concentration (IC90) determination in Iso-Sensitest broth, OD600 growth. The class given is cell-based. To be noted: Acinetobacter baumannii, ATCC17961, 16 h, read-out: A. baumannii ATCC 17961 IC90 (uM), strain ATCC 17961, OD600 growth over 16 h. In a few lines: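 Growth inhibition is calculated during the logarithmic phase from OD600 readings taken every 20 minutes across 16 h at 35±2° C. Bacteria at ~5×10^(5) CFU/ml face twofold dilution series (e.g. 50 to 0.097 μM final).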
The IC90 is the concentration needed for an effect of 90%. As for `Cc1cc(Nc2nccn3c(-c4cn(C)nc4C(F)(F)F)cnc23)ccc1C(=O)N1CCN(C(=O)C2(O)CCNCC2)CC1` [Example 471, formic acid; [4-(4-hydroxypiperidine-4-carbonyl)piperazin-1-yl]-[2-methyl-4-[[3-[1-methyl-3-(trifluoromethyl)pyrazol-4-yl]imidazo[1,2-a]pyrazin-8-yl]amino]phenyl]methanone], the IC90 is 1.1 µM.
Still for that read-out and setting: the figure for `CCc1cc(Nc2nccn3c(-c4cn(CC5CCOC5)nc4C(F)(F)F)cnc23)ccc1C(=O)NCCOCCN` (centres unmarked) [Example 307, N-[2-(2-aminoethoxy)ethyl]-2-ethyl-4-[[3-[1-(oxolan-3-ylmethyl)-3-(trifluoromethyl)pyrazol-4-yl]imidazo[1,2-a]pyrazin-8-yl]amino]benzamide formate] is 0.514 µM; for `CCc1cc(Nc2nccn3c(-c4c[nH]nc4C(F)(F)F)cnc23)ccc1C(=O)NCCNC(=O)[C@@H](N)CNC(=N)N` [Example 213, N-[2-[[(2S)-2-amino-3-carbamimidamidopropanoyl]amino]ethyl]-2-ethyl-4-[[3-[3-(trifluoromethyl)-1H-pyrazol-4-yl]imidazo[1,2-a]pyrazin-8-yl]amino]benzamide formate] it is 0.378 µM.
Same read-out and setting: the figure for `CCc1cc(Nc2nccn3c(-c4cn(CC(F)F)nc4C(F)(F)F)cnc23)ccc1C(=O)NCCNC(=O)[C@H](C)N` [Example 616, (S)-N-(2-(2-aminopropanamido)ethyl)-4-((3-(1-(2,2-difluoroethyl)-3-(trifluoromethyl)-1H-pyrazol-4-yl)imidazo[1,2-a]pyrazin-8-yl)amino)-2-ethylbenzamide formate] is 0.153 µM; for `O=C(c1ccc(Nc2nccn3c(-c4c[nH]nc4C(F)(F)F)cnc23)cc1Cl)N1CCN(C(=O)[C@H]2CCNC[C@H]2O)CC1` [Example 451, [2-chloro-4-[[3-[3-(trifluoromethyl)-1H-pyrazol-4-yl]imidazo[1,2-a]pyrazin-8-yl]amino]phenyl]-[4-[(3S,4S)-3-hydroxypiperidine-4-carbonyl]piperazin-1-yl]methanone formate] it is 0.365 µM.
On the same count and under the same terms, the figure for `CCc1cc(Nc2nccn3c(-c4cn(CC#N)nc4C(F)(F)F)cnc23)ccc1C(=O)NCC(=O)N1CCNC(C)C1` (centres unmarked) [Example 507, 4-[[3-[1-(cyanomethyl)-3-(trifluoromethyl)pyrazol-4-yl]imidazo[1,2-a]pyrazin-8-yl]amino]-2-ethyl-N-[2-(3-methylpiperazin-1-yl)-2-oxo-ethyl]benzamide formate] is 0.245 µM; for `C[C@@H](NC(=O)c1ccc(Nc2nccn3c(-c4cn(CC#N)nc4C(F)(F)F)cnc23)cc1Cl)C(=O)N1CCNCC1` [Example 647, 2-chloro-4-[[3-[1-(cyanomethyl)-3-(trifluoromethyl)pyrazol-4-yl]imidazo[1,2-a]pyrazin-8-yl]amino]-N-[(1R)-1-methyl-2-oxo-2-piperazin-1-yl-ethyl]benzamide formate] it is 0.244 µM.
Regarding `CCc1cc(Nc2nccn3c(-c4cn(CC(F)F)nc4C(F)(F)F)cnc23)ccc1C(=O)NCC(=O)NCC1CCN1` (centres unmarked) [Example 530, N-[2-(azetidin-2-ylmethylamino)-2-oxo-ethyl]-4-[[3-[1-(2,2-difluoroethyl)-3-(trifluoromethyl)pyrazol-4-yl]imidazo[1,2-a]pyrazin-8-yl]amino]-2-ethyl-benzamide formate], the IC90 is 0.327 µM.
Still for that read-out and setting: in the case of `Cc1cc(Nc2nccn3c(-c4cn(C)nc4C(F)(F)F)cnc23)ccc1C(=O)N1CCN(C(=O)[C@@H]2CCNC[C@H]2O)CC1` [Example 477, formic acid; [4-[(3S,4R)-3-hydroxypiperidine-4-carbonyl]piperazin-1-yl]-[2-methyl-4-[[3-[1-methyl-3-(trifluoromethyl)pyrazol-4-yl]imidazo[1,2-a]pyrazin-8-yl]amino]phenyl]methanone] it was 3.24 µM.
Regarding `O=C(NCC1(O)CNC1)N1CCN(C(=O)c2ccc(Nc3nccn4c(-c5cn(CC(F)F)nc5C(F)(F)F)cnc34)cc2Cl)CC1` [Example 580, 4-(2-chloro-4-((3-(1-(2,2-difluoroethyl)-3-(trifluoromethyl)-1H-pyrazol-4-yl)imidazo[1,2-a]pyrazin-8-yl)amino)benzoyl)-N-((3-hydroxyazetidin-3-yl)methyl)piperazine-1-carboxamide formate], the IC90 came out at 0.322 µM.

The assay is the same for the next values; noted with them: Acinetobacter baumannii, ATCC17961, 16 h, strain ATCC 17961, OD600 growth over 16 h, read-out: A. baumannii ATCC 17961 IC90.
Regarding `Cc1cc(Nc2nccn3c(-c4cn(CC(F)F)nc4C(F)(F)F)cnc23)cc(F)c1C(=O)N1CCN(C(=O)[C@H]2C[C@@H](N)C2)CC1` [Example 701, (4-((1s,3s)-3-aminocyclobutane-1-carbonyl)piperazin-1-yl)(4-((3-(1-(2,2-difluoroethyl)-3-(trifluoromethyl)-1H-pyrazol-4-yl)imidazo[1,2-a]pyrazin-8-yl)amino)-2-fluoro-6-methylphenyl)methanone], the IC90 stood at 0.382 µM.
On the same count and under the same terms, in the case of `CCc1cc(Nc2nccn3c(-c4c[nH]nc4C(F)(F)F)cnc23)ccc1C(=O)NCCNC(=O)N1CCC(N)CC1` [Example 568, 4-amino-N-(2-(2-ethyl-4-((3-(3-(trifluoromethyl)-1H-pyrazol-4-yl)imidazo[1,2-a]pyrazin-8-yl)amino)benzamido)ethyl) piperidine-1-carboxamide formate] it was 0.46 µM.
In the case of `CCc1cc(Nc2nccn3c(-c4cn(CCCC#N)nc4C(F)(F)F)cnc23)ccc1C(=O)NC` [Example 343, 4-[[3-[1-(3-cyanopropyl)-3-(trifluoromethyl)pyrazol-4-yl]imidazo[1,2-a]pyrazin-8-yl]amino]-2-ethyl-N-methylbenzamide], the IC90 is 0.546 µM.
For `C#CCn1cc(-c2cnc3c(Nc4ccc(C(=O)NCCOC[C@H](C)N)c(CC)c4)nccn23)c(C(F)(F)F)n1` [Example 147, N-[2-[(2S)-2-aminopropoxy]ethyl]-2-ethyl-4-[[3-[1-prop-2-ynyl-3-(trifluoromethyl)pyrazol-4-yl]imidazo[1,2-a]pyrazin-8-yl]amino]benzamide], the IC90 is 0.049 µM.
`CCc1cc(Nc2nccn3c(-c4cn(C(C)C)nc4C(F)(F)F)cnc23)ccc1C(=O)NCCOCCN` [Example 27, N-[2-(2-aminoethoxy)ethyl]-2-ethyl-4-[[3-[1-propan-2-yl-3-(trifluoromethyl)pyrazol-4-yl]imidazo[1,2-a]pyrazin-8-yl]amino]benzamide hydrochloride]: the IC90 was 0.306 µM.
With `O=C(N[C@@H]1CCN(C(=O)[C@@H]2C[C@@H](O)CN2)C1)c1ccc(Nc2nccn3c(-c4c[nH]nc4C(F)(F)F)cnc23)cc1Cl` [Example 308, 2-chloro-N-[(3R)-1-[(2S,4R)-4-hydroxypyrrolidine-2-carbonyl]pyrrolidine-3-yl]-4-[[3-[3-(trifluoromethyl)-1H-pyrazol-4-yl]imidazo[1,2-a]pyrazin-8-yl]amino]benzamide], the IC90 stood at 0.525 µM.
`CCc1cc(Nc2nccn3c(-c4cn(CC(F)F)nc4C(F)(F)F)cnc23)ccc1C(=O)NCCCNC(=O)[C@H]1C[C@@H](N)C1` [Example 541, N-(3-((1s,3s)-3-aminocyclobutane-1-carboxamido)propyl)-4-((3-(1-(2,2-difluoroethyl)-3-(trifluoromethyl)-1H-pyrazol-4-yl)imidazo[1,2-a]pyrazin-8-yl)amino)-2-ethylbenzamide formate]: the IC90 turned out to be 0.246 µM.
On the same count and under the same terms, in the case of `CCc1cc(Nc2nccn3c(-c4c[nH]nc4C(F)(F)F)cnc23)ccc1C(=O)NCCCCCCN` [Example 336, N-(6-aminohexyl)-2-ethyl-4-[[3-[3-(trifluoromethyl)-1H-pyrazol-4-yl]imidazo[1,2-a]pyrazin-8-yl]amino]benzamide hydrochloride] it was 0.152 µM.
Same read-out and setting: in the case of `Cc1cc(Nc2nccn3c(-c4cn(CC(F)F)nc4C(F)(F)F)cnc23)cc(F)c1C(=O)N[C@H](C)CNC(=O)[C@H]1C[C@@H](N)C1` [Example 669, N-((R)-1-((1s,3S)-3-aminocyclobutane-1-carboxamido)propan-2-yl)-4-((3-(1-(2,2-difluoroethyl)-3-(trifluoromethyl)-1H-pyrazol-4-yl)imidazo[1,2-a]pyrazin-8-yl)amino)-2-fluoro-6-methylbenzamide] it was 0.3 µM; in that of `Cc1cc(Nc2nccn3c(-c4cn(CC#N)nc4C(F)(F)F)cnc23)cc(F)c1C(=O)N[C@H](C)CNC(=O)[C@H]1[C@@H]2CNC[C@@H]21` [Example 720, (1R,5S,6r)-N-((R)-2-(4-((3-(1-(cyanomethyl)-3-(trifluoromethyl)-1H-pyrazol-4-yl)imidazo[1,2-a]pyrazin-8-yl)amino)-2-fluoro-6-methylbenzamido)propyl)-3-azabicyclo[3.1.0] hexane-6-carboxamide formate], 0.441 µM; in that of `Cc1cc(Nc2nccn3c(-c4cn(CCF)nc4C(F)(F)F)cnc23)cc(F)c1C(=O)N1CCNCC1` [Example 73, [2-fluoro-4-[[3-[1-(2-fluoroethyl)-3-(trifluoromethyl)pyrazol-4-yl]imidazo[1,2-a]pyrazin-8-yl]amino]-6-methylphenyl]-piperazin-1-ylmethanone], 0.687 µM.

Still in this assay, the particulars now being: strain ATCC 17961, OD600 growth over 16 h, read-out: A. baumannii ATCC 17961 IC90.
As for `N[C@@H]1CN[C@@H](C(=O)N2CCN(C(=O)c3ccc(Nc4nccn5c(-c6c[nH]nc6C(F)(F)F)cnc45)cc3Cl)CC2)C1` [Example 245, [4-[(2R,4S)-4-aminopyrrolidine-2-carbonyl]piperazin-1-yl]-[2-chloro-4-[[3-[3-(trifluoromethyl-1H-pyrazol-4-yl]imidazo[1,2-a]pyrazin-8-yl]amino]phenyl]methanone formate], the IC90 is 0.45 µM.
Same read-out and setting: in the case of `C=CCn1cc(-c2cnc3c(Nc4ccc(C(=O)NCCOCC(C)(C)N)c(CC)c4)nccn23)c(C(F)(F)F)n1` [Example 45, N-[2-(2-amino-2-methylpropoxy)ethyl]-2-ethyl-4-[[3-[1-prop-2-enyl-3-(trifluoromethyl)pyrazol-4-yl]imidazo[1,2-a]pyrazin-8-yl]amino] benzamide] it was 0.074 µM.
